According to patent US10363239B2, “Method for inhibiting growth of cancer cells” (Pain Therapeutics, Inc., priority 2013, dated 2019):

target: FLNA pentapeptide of SEQ ID NO: 1 (Bn-VAKGL) (Homo sapiens, UniProt P21333); experiment: FITC-NLX-based FLNA screening assay (inhibition of FITC-naloxone binding to Bn-VAKGL on streptavidin plates); conditions: FLNA-binding compound 0.01 μM; 10 nM FITC-NLX

Row | SMILES | Percent Binding Inhibition [%]
1 | CC1CCC(C(C)C)C(OCC(O)CN2CCc3ccccc32)C1 (stereo not drawn) [Compound A0065] | 38.7

same assay, conditions: FLNA-binding compound 0.01 μM; 10 nM FITC-NLX; read-out: Percent Binding Inhibition

Row | SMILES | inhibition at 0.01 µM [%]
2 | CC1CCC(C(C)C)C(OCC(O)CN2CCSC2)C1 (stereo not drawn) [Compound A0002] | 38.7
3 | COc1ccc(S(=O)(=O)N2CCSC23CCNCC3)cc1 [S-C0027] | 39.1
4 | O=S(=O)(c1ccc(F)c(F)c1)N1CCC2(CC1)OCCN2S(=O)(=O)c1ccc(F)c(F)c1 [Compound C0072] | 28.4
5 | CC1CCC(C(C)C)C(OCC(O)CN2CCCC2=O)C1 (stereo not drawn) [Compound A0035] | 40.3

same assay, conditions: FLNA-binding compound 0.1 μM; 10 nM FITC-NLX

Row | SMILES | Percent Binding Inhibition [%]
6 | CC1CCC(C(C)C)C(OCC(O)CN2CCc3ccccc32)C1 (stereo not drawn) [Compound A0065] | 50.0

same assay, conditions: FLNA-binding compound 0.1 μM; 10 nM FITC-NLX; read-out: Percent Binding Inhibition

Row | SMILES | inhibition at 0.1 µM [%]
7 | CC1CCC(C(C)C)C(OCC(O)CN2CCSC2)C1 (stereo not drawn) [Compound A0002] | 43.7
8 | COc1ccc(S(=O)(=O)N2CCSC23CCNCC3)cc1 [S-C0027] | 46.5
9 | O=S(=O)(c1ccc(F)c(F)c1)N1CCC2(CC1)OCCN2S(=O)(=O)c1ccc(F)c(F)c1 [Compound C0072] | 37.4
10 | CC1CCC(C(C)C)C(OCC(O)CN2CCCC2=O)C1 (stereo not drawn) [Compound A0035] | 45.5

same assay, conditions: FLNA-binding compound 1 μM; 10 nM FITC-NLX

Row | SMILES | Percent Binding Inhibition [%]
11 | CC1CCC(C(C)C)C(OCC(O)CN2CCc3ccccc32)C1 (stereo not drawn) [Compound A0065] | 50.8

same assay, conditions: FLNA-binding compound 1 μM; 10 nM FITC-NLX; read-out: Percent Binding Inhibition

Row | SMILES | inhibition at 1 µM [%]
12 | CC1CCC(C(C)C)C(OCC(O)CN2CCSC2)C1 (stereo not drawn) [Compound A0002] | 49.9
13 | COc1ccc(S(=O)(=O)N2CCSC23CCNCC3)cc1 [S-C0027] | 53.6
14 | O=S(=O)(c1ccc(F)c(F)c1)N1CCC2(CC1)OCCN2S(=O)(=O)c1ccc(F)c(F)c1 [Compound C0072] | 44
15 | CC1CCC(C(C)C)C(OCC(O)CN2CCCC2=O)C1 (stereo not drawn) [Compound A0035] | 54.9

same assay, conditions: read-out: Percent Binding Inhibition, FLNA-binding compound 0.01 μM; 10 nM FITC-NLX

Row | SMILES | inhibition at 0.01 µM [%]
16 | O=S(=O)(c1ccc(C(F)(F)F)cc1Br)N1CCC2(CC1)OCCN2S(=O)(=O)c1ccc(C(F)(F)F)cc1Br [Compound C0071] | 39.1

same assay, conditions: read-out: Percent Binding Inhibition, FLNA-binding compound 0.1 μM; 10 nM FITC-NLX

Row | SMILES | inhibition at 0.1 µM [%]
17 | O=S(=O)(c1ccc(C(F)(F)F)cc1Br)N1CCC2(CC1)OCCN2S(=O)(=O)c1ccc(C(F)(F)F)cc1Br [Compound C0071] | 49.6

same assay, conditions: read-out: Percent Binding Inhibition, FLNA-binding compound 1 μM; 10 nM FITC-NLX

Row | SMILES | inhibition at 1 µM [%]
18 | O=S(=O)(c1ccc(C(F)(F)F)cc1Br)N1CCC2(CC1)OCCN2S(=O)(=O)c1ccc(C(F)(F)F)cc1Br [Compound C0071] | 55.2

tested on: mu opiate receptor (MOR); experiment: MOR agonist activity using [35S]GTPγS binding assay in striatal membranes; assay type: biochemical; conditions: 0.1 μM compound
Outline: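 Striatal membranes (200 μg) were preincubated 5 min at 30 °C in HEPES pH 7.5 with 100 mM NaCl, 1 mM MgCl2 and 0.5 nM [35S]GTPγS, then 5 min more with 0.1–10 μM compound. Gαo was immunoprecipitated and bound radioactivity counted by scintillation.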

Row | SMILES | MOR agonist activity ([35S]GTPγS binding), FLNA-Binding Compound as Agonist 0.1 μM [%]
19 | CC1CCC(C(C)C)C(OCC(O)CN2CCSC2)C1 (stereo not drawn) [Compound A0002] | 155.6
20 | CC1CCC(C(C)C)C(OCC(O)CN2CCc3ccccc32)C1 (stereo not drawn) [Compound A0065] | 197.6
21 | CC1CCC(C(C)C)C(OCC(O)CN2CCCC2=O)C1 (stereo not drawn) [Compound A0035] | 120.6

same assay, conditions: 0.1 μM compound relative to DAMGO

Row | SMILES | % DAMGO (0.1 μM) [%]
22 | CC1CCC(C(C)C)C(OCC(O)CN2CCSC2)C1 (stereo not drawn) [Compound A0002] | 104.1
23 | CC1CCC(C(C)C)C(OCC(O)CN2CCc3ccccc32)C1 (stereo not drawn) [Compound A0065] | 126.6
24 | CC1CCC(C(C)C)C(OCC(O)CN2CCCC2=O)C1 (stereo not drawn) [Compound A0035] | 61.5

same assay, conditions: 1 μM compound

Row | SMILES | MOR agonist activity ([35S]GTPγS binding), FLNA-Binding Compound as Agonist 1 μM [%]
25 | CC1CCC(C(C)C)C(OCC(O)CN2CCSC2)C1 (stereo not drawn) [Compound A0002] | 199.4
26 | CC1CCC(C(C)C)C(OCC(O)CN2CCc3ccccc32)C1 (stereo not drawn) [Compound A0065] | 266.8
27 | CC1CCC(C(C)C)C(OCC(O)CN2CCCC2=O)C1 (stereo not drawn) [Compound A0035] | 158.8

same assay, conditions: 1 μM compound + 1 μM β-funaltrexamine

Row | SMILES | MOR agonist activity ([35S]GTPγS binding), FLNA-Binding Compound as Agonist 1 μM + BFNA [%]
28 | CC1CCC(C(C)C)C(OCC(O)CN2CCSC2)C1 (stereo not drawn) [Compound A0002] | 6.5
29 | CC1CCC(C(C)C)C(OCC(O)CN2CCc3ccccc32)C1 (stereo not drawn) [Compound A0065] | 44.9
30 | CC1CCC(C(C)C)C(OCC(O)CN2CCCC2=O)C1 (stereo not drawn) [Compound A0035] | 88.6

same assay, conditions: 1 μM compound + BFNA relative to DAMGO + BFNA

Row | SMILES | % DAMGO + BFNA [%]
31 | CC1CCC(C(C)C)C(OCC(O)CN2CCSC2)C1 (stereo not drawn) [Compound A0002] | 24.5
32 | CC1CCC(C(C)C)C(OCC(O)CN2CCc3ccccc32)C1 (stereo not drawn) [Compound A0065] | 112.5
33 | CC1CCC(C(C)C)C(OCC(O)CN2CCCC2=O)C1 (stereo not drawn) [Compound A0035] | 119.9

same assay, conditions: 1 μM compound relative to DAMGO

Row | SMILES | % DAMGO (1 μM) [%]
34 | CC1CCC(C(C)C)C(OCC(O)CN2CCSC2)C1 (stereo not drawn) [Compound A0002] | 86.6
35 | CC1CCC(C(C)C)C(OCC(O)CN2CCc3ccccc32)C1 (stereo not drawn) [Compound A0065] | 115.7
36 | CC1CCC(C(C)C)C(OCC(O)CN2CCCC2=O)C1 (stereo not drawn) [Compound A0035] | 57.5

same assay, conditions: Series C-1; 0.1 μM compound, relative to DAMGO

Row | SMILES | % DAMGO (0.1 μM) [%]
37 | O=S(=O)(c1ccc(C(F)(F)F)cc1Br)N1CCC2(CC1)OCCN2S(=O)(=O)c1ccc(C(F)(F)F)cc1Br [Compound C0071] | 160.5
38 | O=S(=O)(c1ccc(F)c(F)c1)N1CCC2(CC1)OCCN2S(=O)(=O)c1ccc(F)c(F)c1 [Compound C0072] | 100.3

same assay, conditions: Series C-1; 0.1 μM compound; [35S]GTPγS binding to Gαo, striatal membranes

Row | SMILES | Concentration of FLNA-Binding Compound as Agonist 0.1 μM [%]
39 | O=S(=O)(c1ccc(C(F)(F)F)cc1Br)N1CCC2(CC1)OCCN2S(=O)(=O)c1ccc(C(F)(F)F)cc1Br [Compound C0071] | 276.3
40 | O=S(=O)(c1ccc(F)c(F)c1)N1CCC2(CC1)OCCN2S(=O)(=O)c1ccc(F)c(F)c1 [Compound C0072] | 172.7

same assay, conditions: Series C-1; 1 μM compound + 1 μM β-FNA

Row | SMILES | Concentration of FLNA-Binding Compound as Agonist 1 μM + BFNA [%]
41 | O=S(=O)(c1ccc(C(F)(F)F)cc1Br)N1CCC2(CC1)OCCN2S(=O)(=O)c1ccc(C(F)(F)F)cc1Br [Compound C0071] | 177.1
42 | O=S(=O)(c1ccc(F)c(F)c1)N1CCC2(CC1)OCCN2S(=O)(=O)c1ccc(F)c(F)c1 [Compound C0072] | 67.1

same assay, conditions: Series C-1; 1 μM compound + β-FNA, relative to DAMGO + BFNA

Row | SMILES | % DAMGO + BFNA [%]
43 | O=S(=O)(c1ccc(C(F)(F)F)cc1Br)N1CCC2(CC1)OCCN2S(=O)(=O)c1ccc(C(F)(F)F)cc1Br [Compound C0071] | 513.3
44 | O=S(=O)(c1ccc(F)c(F)c1)N1CCC2(CC1)OCCN2S(=O)(=O)c1ccc(F)c(F)c1 [Compound C0072] | 194.5

same assay, conditions: Series C-1; 1 μM compound, relative to DAMGO

Row | SMILES | % DAMGO (1 μM) [%]
45 | O=S(=O)(c1ccc(C(F)(F)F)cc1Br)N1CCC2(CC1)OCCN2S(=O)(=O)c1ccc(C(F)(F)F)cc1Br [Compound C0071] | 161.7
46 | O=S(=O)(c1ccc(F)c(F)c1)N1CCC2(CC1)OCCN2S(=O)(=O)c1ccc(F)c(F)c1 [Compound C0072] | 117.9

same assay, conditions: Series C-1; 1 μM compound; [35S]GTPγS binding to Gαo, striatal membranes

Row | SMILES | Concentration of FLNA-Binding Compound as Agonist 1 μM [%]
47 | O=S(=O)(c1ccc(C(F)(F)F)cc1Br)N1CCC2(CC1)OCCN2S(=O)(=O)c1ccc(C(F)(F)F)cc1Br [Compound C0071] | 355.3
48 | O=S(=O)(c1ccc(F)c(F)c1)N1CCC2(CC1)OCCN2S(=O)(=O)c1ccc(F)c(F)c1 [Compound C0072] | 259.1

same assay, conditions: Series C-2; 0.1 μM compound, relative to DAMGO

Row | SMILES | % DAMGO (0.1 μM) [%]
49 | COc1ccc(S(=O)(=O)N2CCSC23CCNCC3)cc1 [S-C0027] | 74.2

same assay, conditions: Series C-2; 0.1 μM compound; [35S]GTPγS binding to Gαo, striatal membranes

Row | SMILES | MOR agonist activity, percent [35S]GTPγS binding at the stated compound concentration [%]
50 | COc1ccc(S(=O)(=O)N2CCSC23CCNCC3)cc1 [S-C0027] | 156.2

same assay, conditions: Series C-2; 1 μM compound + 1 μM β-FNA

Row | SMILES | MOR agonist activity, percent [35S]GTPγS binding at the stated compound concentration [%]
51 | COc1ccc(S(=O)(=O)N2CCSC23CCNCC3)cc1 [S-C0027] | 56.2

same assay, conditions: Series C-2; 1 μM compound + β-FNA, relative to DAMGO + BFNA

Row | SMILES | % DAMGO + BFNA [%]
52 | COc1ccc(S(=O)(=O)N2CCSC23CCNCC3)cc1 [S-C0027] | 98.1

same assay, conditions: Series C-2; 1 μM compound, relative to DAMGO

Row | SMILES | % DAMGO (1 μM) [%]
53 | COc1ccc(S(=O)(=O)N2CCSC23CCNCC3)cc1 [S-C0027] | 84.4

same assay, conditions: Series C-2; 1 μM compound; [35S]GTPγS binding to Gαo, striatal membranes

Row | SMILES | MOR agonist activity, percent [35S]GTPγS binding at the stated compound concentration [%]
54 | COc1ccc(S(=O)(=O)N2CCSC23CCNCC3)cc1 [S-C0027] | 286.8
